Reference: publication PMC5301048, “Selection and early clinical evaluation of the brain‐penetrant 11β‐hydroxysteroid dehydrogenase type 1 (11β‐HSD1) inhibitor UE2343 (Xanamem™)” (British Journal of Pharmacology, 2017)
In brackets after ≈: the same amount, converted by molar mass. Where two headings read alike, the source gives them in different places.

What was measured:
[1] = Plasma protein binding, human plasma; assay type: in vitro ADME; conditions: for Plasma protein binding (% unbound), human: mean ± SD [n]
Description: Plasma protein binding was determined using pooled human plasma according to the method described in WO2011135276 (Webster et al., 2011a).

human 11β‐HSD1 = target: T1, human 11β‐HSD1 (Homo sapiens, UniProt P28845); assay: Inhibition of human 11β-HSD1 in stably transfected HEK293 cells; assay type: cell-based; conditions: HEK293 cells; mean ± SD [n]; read-out: Human 11β‐HSD1 IC50 in HEK293 cells
T1 construct: a construct containing the full‐length gene coding for the human 11β‐HSD1 enzyme; expressed in transfected cells; host or cells: HEK293
T1 sequence (P28845 whole entry): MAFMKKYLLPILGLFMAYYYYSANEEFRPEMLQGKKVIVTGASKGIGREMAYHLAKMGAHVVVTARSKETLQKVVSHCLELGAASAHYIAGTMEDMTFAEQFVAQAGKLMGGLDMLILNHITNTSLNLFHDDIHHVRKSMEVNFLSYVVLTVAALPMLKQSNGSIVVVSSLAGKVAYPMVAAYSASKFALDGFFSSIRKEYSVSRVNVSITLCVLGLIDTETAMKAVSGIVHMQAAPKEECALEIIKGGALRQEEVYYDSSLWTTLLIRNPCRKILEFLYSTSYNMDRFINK
Description: Inhibition of human 11β‐HSD1 was determined in HEK293 cells stably transfected with a construct containing the full‐length gene coding for the human 11β‐HSD1 enzyme according to the protocol described by Sooy et al., 2010.

[2] = Tissue exposure measurements in rats (plasma and brain); assay type: in vivo; conditions: rat; for Kp / Cmax: male, Sprague Dawley; for Cmax: plasma; for Cmax / Brain Cmax / Plasma Cmax: mean ± SD
Description: The circulating plasma levels and tissue distribution of compounds were determined according to the method described in WO2011135276 (Webster et al., 2011a). Animals were group‐housed, had free access to food and water and were maintained in accordance with UK Home Office regulations. The animal work was conducted under UK Home Office Project Licence no. PPL 60/3915.
Compounds were prepared in 0.9% saline containing 2% DMSO (v^.v^‐1) and 38% PEG400 (v^.v^‐1) and administered to male Sprague Dawley rats by oral gavage such that the final concentration of compound was 10 mg·kg^−1. Rats (n = 3 per time point) were killed by decapitation at 1, 4 and 6 h post dosing, and trunk blood and tissues (liver, adipose and brain) were excised. Blood samples at 0.5 and 2 h post dosing were taken by a tail nick from the 4 and 6 h rats respectively.
Compounds were triple extracted from plasma (prepared from blood by a high speed centrifugation step) and spiked with 1 μg of a standard compound using ethyl acetate. Extracts were dried under nitrogen and re‐suspended in 60% methanol/40% ammonium acetate (5 mM).
A known weight of tissue was homogenized in 3 volumes of Krebs buffer. The compound was triple extracted with ethyl acetate from the supernatant of a low speed spin spiked with […] of a standard compound. Extracts were dried under nitrogen and re‐suspended in 60% methanol/40% ammonium acetate (5 mM).
Samples from plasma and tissue were analysed by TSQ Quantum Discovery Tandem Mass Spectrometer and Surveyor Liquid Chromatogram (Thermo, Hemel‐Hempstead, UK). Then 10 μL of each sample was injected in a mobile phase consisting of 60% methanol/40% ammonium acetate (5 mM) at a flow rate of 0.5 mL·min^−1. The column used was a BDS hypersil C18, 50 × 2.1 mm with a 5 μm particle size.
Each compound was tuned with a spray voltage of 3000 V and a capillary temperature of 300°C, and values for tube lens, CID and product ions were determined. The peak area for each compound and for the internal standard was determined, and the concentration of compound ^. g^‐1 of tissue or mL^‐1 of plasma was calculated by comparison of the peak area ratio to a standard curve.

[3] = Aqueous solubility at pH 7.4; assay type: physicochemical; conditions: thermodynamic from solid, pH 7.4, room temperature, mean ± SD [n]
Description: The concentration was quantified by HPLC with reference to a standard calibration curve. The solubility was calculated using the peak areas determined by integration of the peak found at the same retention time as the principal peak in the standard injection.

in vivo = conditions: male, Sprague Dawley, rat
Description: Pharmacokinetic studies were carried out at Quotient Bioresearch, UK. For both i.v. and p.o. administration, compounds were prepared in 0.9% saline containing 2% DMSO (v^.v^‐1) and 38% PEG400 (v^.v^‐1). Solutions were passed through 0.22 μm filters prior to administration. Animals were given ad libitum access to food and water throughout the study. For i.v. administration three male Sprague Dawley rats each received 1 mg·kg^−1 of compound by tail vein injection (dose volume 5 mL·kg^−1). Serial blood samples were taken from a lateral tail vein 5, 15, 30 min, 1, 2, 4, 6 and 8 h post i.v. administration, and stored in individual EDTA containers. Blood samples were flash frozen in liquid nitrogen and stored at −20°C prior to analysis. For p.o. administration, five male Sprague Dawley rats were dosed with compound at 5 mg·kg^−1 (dose volume 10 mL·kg^−1). Serial blood samples were taken from a lateral tail vein 15, 30 min, 1, 2, 4, 6 and 8 h post p.o. administration, and stored in individual EDTA containers. Blood samples were flash frozen in liquid nitrogen and stored at −20°C prior to analysis. Blood samples were thawed at ambient temperature and vortex mixed thoroughly. A representative aliquot of each blood sample was diluted 1:1 v^.v^‐1 with HPLC grade water prior to protein precipitation with acetonitrile containing diazepam internal standard (blood/water: acetonitrile ratio was 1:4 v^ v^‐1). Following vortex mixing and centrifugation (4°C, 15 min, 17 000 x g) a 100 μL aliquot of supernatant was diluted by addition of 50 μL HPLC grade water in a well of a 96‐well midi‐eppendorf plate. The plate was sealed and shaken on a plate shaker to ensure sample homogeneity. Samples were assayed against a series of matrix matched calibration curve standards by LC–MS/MS using a Sciex 3000 mass spectrometer. Pharmacokinetic parameters were derived by non‐compartmental analysis using WinNonLin pharmacokinetic software.

[4] = Pharmacokinetics in dog (i.v. and p.o.); assay type: in vivo; conditions: Beagle, plasma
Description: Pharmacokinetic studies were carried out at Charles River, UK. For both i.v. and p.o. administration, compounds were prepared in 0.9% saline containing 2% DMSO (v^.v^‐1) and 38% PEG400 (v^.v^‐1). Solutions were passed through 0.22 μm filters prior to administration. Three Beagle dogs each received a single i.v. injection of compound 4 at a dose level of 1 mg·kg^−1. Following a washout period of 1 week, each animal received a single p.o. dose of compound 4 at a dose level of 5 mg·kg^−1.
After a washout period of 6 weeks, the same three dogs each received a single i.v. injection of compound 7 at a dose level of 1 mg·kg^−1. Following a washout period of 1 week, each animal received a single p.o. dose of compound 7 at a dose level of 5 mg·kg^−1.
Plasma samples were obtained up to 24 h post dose administration, and the concentration of each test item in plasma was determined using LC–MS/MS. Pharmacokinetic parameters were derived by non‐compartmental analysis using WinNonLin pharmacokinetic software.

[5] = Microsomal stability, rat liver microsomes; assay type: in vitro ADME; conditions: mean ± SD [n]
Description: (§1) Microsomal stability was determined using pooled human, rat or dog liver microsomes according to the method described in WO2011135276 (Webster et al., 2011a).

[6] = Plasma protein binding, rat plasma; assay type: in vitro ADME; conditions: mean ± SD [n]
[7] = Microsomal stability, human liver microsomes; assay type: in vitro ADME; conditions: mean ± SD [n]
Description: as §1

[8] = Plasma protein binding, dog plasma; assay type: in vitro ADME; conditions: mean ± SD [n]
[9] = Microsomal stability, dog liver microsomes; assay type: in vitro ADME; conditions: mean ± SD [n]
Description: as §1

hERG K+ channel = target: T2, hERG K+ channel (Homo sapiens, UniProt Q12809); assay: hERG inhibition, IonWorks Quattro patch clamp; assay type: cell-based; conditions: Chinese hamster lung cells expressing hERG; mean ± SD [n]
T2 construct: Chinese hamster lung cell line stably expressing the full length hERG channel; host or cells: Chinese hamster lung cell line
T2 sequence (Q12809 whole entry): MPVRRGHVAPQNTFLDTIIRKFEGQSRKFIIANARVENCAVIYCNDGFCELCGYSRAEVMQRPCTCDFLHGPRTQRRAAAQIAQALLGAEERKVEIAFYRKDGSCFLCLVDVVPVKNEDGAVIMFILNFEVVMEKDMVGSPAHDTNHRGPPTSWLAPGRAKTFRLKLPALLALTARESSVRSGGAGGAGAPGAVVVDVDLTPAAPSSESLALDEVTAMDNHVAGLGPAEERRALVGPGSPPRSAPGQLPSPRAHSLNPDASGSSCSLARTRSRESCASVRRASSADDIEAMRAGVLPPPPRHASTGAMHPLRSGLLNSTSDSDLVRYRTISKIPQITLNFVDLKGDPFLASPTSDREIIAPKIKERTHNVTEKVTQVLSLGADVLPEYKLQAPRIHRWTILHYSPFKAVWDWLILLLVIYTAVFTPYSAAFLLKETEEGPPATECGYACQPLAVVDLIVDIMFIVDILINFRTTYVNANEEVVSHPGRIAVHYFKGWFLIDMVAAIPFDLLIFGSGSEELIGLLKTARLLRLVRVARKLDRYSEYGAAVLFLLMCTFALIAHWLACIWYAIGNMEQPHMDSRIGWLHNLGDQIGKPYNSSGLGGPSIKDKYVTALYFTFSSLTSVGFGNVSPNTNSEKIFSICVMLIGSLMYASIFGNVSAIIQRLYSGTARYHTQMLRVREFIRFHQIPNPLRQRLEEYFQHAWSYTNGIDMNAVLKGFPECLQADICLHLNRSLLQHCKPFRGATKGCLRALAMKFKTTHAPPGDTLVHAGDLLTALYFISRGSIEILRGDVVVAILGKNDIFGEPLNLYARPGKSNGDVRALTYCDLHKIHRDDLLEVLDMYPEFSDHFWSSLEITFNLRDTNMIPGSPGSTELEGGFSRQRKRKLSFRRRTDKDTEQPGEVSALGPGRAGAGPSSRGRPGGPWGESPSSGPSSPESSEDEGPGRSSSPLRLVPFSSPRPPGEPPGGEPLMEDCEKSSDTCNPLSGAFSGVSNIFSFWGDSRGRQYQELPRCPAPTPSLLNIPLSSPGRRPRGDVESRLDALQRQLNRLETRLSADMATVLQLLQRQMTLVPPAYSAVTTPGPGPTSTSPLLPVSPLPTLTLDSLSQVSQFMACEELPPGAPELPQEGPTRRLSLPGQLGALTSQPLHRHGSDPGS
Description: Testing was performed by Essen Instruments, Hertfordshire, UK. Compounds were tested for inhibition of the human ether a go‐go related gene (hERG) K+ channel in a Chinese hamster lung cell line stably expressing the full length hERG channel. Single cell ionic currents were measured in the perforated patch clamp configuration at room temperature using an IonWorks Quattro instrument. Eight‐point concentration–response curves were generated using threefold serial dilutions from the maximum final assay concentration. IC50 values were obtained from a four‐parameter logistic fit of the % inhibition data.

[10] = brain and plasma, po, 10 mg/kg, 10 mg·kg^−1 oral gavage, read-out: Brain : plasma ratio
[11] = po, 10 mg/kg, 10 mg·kg^−1 oral gavage

| SMILES | IC50 (human 11β‐HSD1) | Kp [2, 10] | Cmax [2, 11] | Brain Cmax ([2]; 10 mg·kg^−1 oral gavage) | further results |
| --- | --- | --- | --- | --- | --- |
| O=C(c1csc(-c2cn[nH]c2)c1)N1C2CCC1CC(O)(c1ccccc1)C2 (stereo not shown) [compound 1] | 22 ± 2 nM | 0.07 | 419 ± 28 ng/mL | 29 ± 10 ng/mL | Plasma protein binding (% unbound), human [1]: 10±0 % unbound; solubility ([3]; aqueous buffer): 6 µg/mL (≈ 15.8 µM); bioavailability (in vivo): 23%; half-life (in vivo): 0.9 ± 0.1 h; clearance (in vivo; iv, 1 mg/kg): 34 ± 22 mL/min/kg |
| O=C(c1csc(-c2cn[nH]c2)c1)N1C2CCC1CC(O)(c1ccccn1)C2 (stereo not shown) [compound 2] | 26 ± 8 nM | 0.02 | 1270 ± 330 ng/mL | 31 ± 12 ng/mL |  |
| O=C(c1csc(-c2cn[nH]c2)c1)N1C2CCC1CC(O)(c1ncccc1Cl)C2 (stereo not shown) [compound 3] | 12 nM | 0.31 | 115 ± 48 ng/mL | 36 ± 12 ng/mL |  |
| O=C(c1csc(-c2cn[nH]c2)c1)N1C2CCC1CC(O)(c1cnccn1)C2 (stereo not shown) [compound 5] | 37 ± 3 nM | 0.03 | 589 ± 161 ng/mL | 19 ± 17 ng/mL |  |
| O=C(c1csc(-c2cn[nH]c2)c1)N1C2CCC1CC(F)(c1ccccn1)C2 (stereo not shown) [compound 6] | 22 ± 10 nM |  |  | 108 ± 54 ng/mL | Brain : plasma ratio ([2]; 10 mg·kg^−1 oral gavage): 0.27; Plasma Cmax ([2]; 10 mg·kg^−1 oral gavage): 399 ± 99 ng/mL |
| O=C(c1csc(-c2cn[nH]c2)c1)N1C2CCC1CC(F)(c1ccccn1)C2 (stereo not shown) [compound 7] | 7 ± 4 nM | 0.24 |  | 374 ± 184 ng/mL | clearance ([4]; iv, i.v. 1 mg·kg^−1, mean ± SD): 8.68 ± 2.03 mL/min/kg; half-life ([4]; mean ± SD): 3.21 ± 1.61 h; Cmax ([4]; po, p.o. 5 mg·kg^−1, mean ± SD): 3100 ± 908 ng/mL; AUC ([4]; po, p.o. 5 mg·kg^−1, mean ± SD, read-out: Oral AUC(0➔∞)): 9210 ± 2000 ng·h/mL; bioavailability ([4]; po, p.o. 5 mg·kg^−1 vs i.v. 1 mg·kg^−1, mean ± SD): 90 ± 40%; Plasma protein binding (% unbound), human [1]: 11 ± 2 [2] % unbound; free fraction in plasma relative to the 3‐endo isomer (compound 6) ([1]; species not stated, in words): twofold greater; Liver microsomal stability (% parent at 30 min), rat [5]: 45 ± 5 [3] % parent at 30 min; Plasma protein binding (% unbound), rat [6]: 10 ± 1 [2] % unbound; Kp ([2]; brain (relative to free plasma), oral, 10 mg·kg^−1, rat, rat plasma protein binding taken into account, read-out: brain : plasma free ratio): 2.45; Plasma Cmax ([2]; 10 mg·kg^−1 oral gavage): 1526 ± 212 ng/mL; Liver microsomal stability (% parent at 30 min), human [7]: 51 ± 3 [3] % parent at 30 min; Plasma protein binding (% unbound), dog [8]: 11 ± 0 [1] % unbound; Liver microsomal stability (% parent at 30 min), dog [9]: 74 ± 1 [3] % parent at 30 min; IC50 (hERG K+ channel): 3100 ± 600 nM; solubility ([3]; aqueous phosphate buffer): 6 µg/mL (≈ 15.7 µM) |
| N#CC1(c2ccccn2)CC2CCC(C1)N2C(=O)c1csc(-c2cn[nH]c2)c1 (stereo not shown) [compound 8] | 15 nM | 0.03 | 291 ± 74 ng/mL | 9 ± 3 ng/mL |  |
| N#CC1(c2ncccn2)CC2CCC(C1)N2C(=O)c1csc(-c2cn[nH]c2)c1 (stereo not shown) [compound 9] | 13 ± 3 nM | 0.07 | 230 ± 33 ng/mL | 15 ± 1 ng/mL |  |
